From patent publication US12564609B2, “Hematopoietic stem cell engraftment with a combination of agents” (The Board of Trustees of the Leland Stanford Junior …, priority 2020, dated 2026)

Test system: LT-HSC, ST-HSC, MPP
Assay: Ki67 expression and HSPC depletion after AZA (dose titration)
Type: in vivo, C57BL/6 mice
Description: A. Schematic of treatment protocol. […] 24 h after last AZA injection BM was analyzed for HSC-depletion and Ki67 intracellular protein expression. B. […] C. Mean fluorescence intensity (MFI) of Ki67 intracellular protein expression in LT-HSC, ST-HSC, MPP2, MPP3/4 and myeloid progenitors (MP). Data were pooled from 2 independent experiments and represent mean±SD (n=7). Statistics were calculated Mann-Whitney test (*P<0.05; **P<0.01; ***P<0.001). D. Schematic of in vitro culture protocol. Mouse Lin^−Sca1+c-Kit^+CD48^− or human Lin^−CD34^+CD38^− were FACS-sorted and plated in 96-well flat bottom plate, coated with fibronectin and containing 100 μl of HSC media/well, supplemented with 10 ng/ml SCF and 100 ng/ml TPO. Different concentrations of AZA (0.1, 0.5 and 1 μg/ml) were added on two consecutive days (at baseline and 24 h after cell culturing) and cell counting, and cell imaging was performed every 6 h for total of 48 h on ImagExpress Pico automated cell counting system. After 48 h % live/dead cells was assessed by using EarlyTox Live/Dead Assay Kit. E. Proliferation curves of FACS-sorted mouse Lin^−Sca1^+c-Kit^+CD48^− in the presence of indicated concentrations of AZA (left) and cell viability as assessed by % of Calcein AM positive cells after 48 h of cell culture (right). Data represent mean±SD from 3 independent experiments. Statistics were calculated with Mann-Whitney test (*P<0.05; **P<0.01; ***P<0.001). F. Proliferation curves of FACS-sorted human Lin^−CD34^+CD38^− cells in the presence of indicated concentrations of AZA (left) and cell viability as assessed by % of Calcein AM positive cells after 48 h of cell culture (right). Data represent mean±SD from 2 independent experiments. Statistics were calculated with Mann-Whitney test (**P<0.01; ***P<0.001).
Analysis was performed 24 h after last AZA administration. Gated from lineage negative (Lin^−) live cells. Lin^−Sca1^+c-Kit^++ cells (LSK), long-term hematopoietic stem cells (LT-HSC). […] Data were pooled from 2 independent experiments and represent mean±SD (n=7). Statistics were calculated Mann-Whitney test (**P<0.01; ***P<0.001).
In vivo administration of therapeutic agents and cytokines. Anti-mouse CD117 mAbs, clone ACK2 (BioXcell) and 2B8 (BioXcell), were injected retroorbital as a single dose of 500 μg following intraperitoneal administration of Diphenhydramine (Benadryl). Anti CD4 (clone GK1.5, BioXcell) and anti-CD8 (clone YTS169.4, BioXcell) were administered intraperitoneally at a dose of 100 μg in 100 μl phosphate-buffered saline (PBS). 5-Azacytidine (AZA) ([…] Technologies), was reconstituted in PBS to a concentration of 5 mg/ml and kept at −20° for up to 1 month. Before each injection, AZA was thawed for 10-15 min at room temperature (RT), resuspended in PBS and administered intraperitoneally in 100 μl. […]

SMILES: Nc1ncn([C@@H]2O[C@H](CO)[C@@H](O)[C@H]2O)c(=O)n1 [AZA, 5-Azacytidine]
- level of HSPC (LSK) and LT-HSC after depletion (AZA 1.25 mg/kg/d for 3 days, 24 h after last dose): −25 % of baseline
- normalization of Ki67 in HSC and MPP (AZA 5 mg/kg/d for 5 days): ≤ 10 days
- Ki67 in HSC and MPP (AZA 5 mg/kg/d for 5 days, day 6): significant increase of Ki67
- Ki67 protein expression in HSC, MPP and MP compartments (AZA 1.25, 2.5 and 5 mg/kg/d for 3 days (all three dose regimens)): significant increase in Ki67 protein expression
